This is an account of results in patent publication US8975265B2, “Substituted imidazo[1,2-a]pyrimidines and —pyridines” (Bayer Intellectual Property GmbH, priority 2010, dated 2015).

The subject of experiment [1] is p-4E-BP1-T70 in KPL4 breast tumour cell line. The experiment in a line: Cellular p-4E-BP1-T70 assay. The format is cell-based. The settings on record: 2 hours treatment, read-out: P4EBP1-T70 median IC50. Here is the method:
The molecular mechanism of action was investigated in a set of experiments to assess the inhibition of the PI3K-AKT-mTOR pathway in responsive cell lines such as KPL4 breast tumour cell line (PIK3CAH1047R, HER20/E and hormone independent). The phospho-substrates of PI3K-AKT-mTOR axis were used as the read-outs to reflect pathway inhibition. Cells were seeded at 60-80% confluency per well in 96-well cell culture plates. After overnight incubation at 37° C. 5% CO2, cells were treated with compounds and vehicle at 37° C. for 2 hours. Thereafter, cells were lysed in 150 μl lysis buffer and the levels of phospho-AKT at T308 and S473 and p-4E-BP1 at T70 sites were determined with the corresponding AlphaScreen® SureFire® assay kits (Perkin Elmer: 4E-BP1 Assay Kit Cat # TRG4E2S10K; Akt 1/2/3 p-Ser 473 #TGRA4S500 and Akt 1/2/3 p-Thr 308 #TGRA3S500 as well as IgG detection Kit #6760617M) as described in the manuals. All measurements where at least done in duplicates and confirmed by independent repetition.

In experiment [2] the test system is MCF7. The experiment in a line: Tumor cell proliferation assay (CellTiter-Glo, 72 h), MCF7. The format is cell-based. The settings on record: Homo sapiens, 72h drug exposure. The procedure: Compounds were tested in a cell-based assay that measures the capacity of the compounds to inhibit tumour cell proliferation following a 72h drug exposure. Cell viability is determined using CellTiter-Glow® (CTG, Promega, cat# G7571/2/3). The CellTiter-Glo® Luminescent Cell Viability Assay is a homogeneous method to determine the number of viable cells in culture. Detection is based on using the luciferase reaction to measure the amount of ATP from viable cells. The amount of ATP in cells correlates with cell viability. Within minutes after a loss of membrane integrity, cells lose the ability to synthesize ATP, and endogenous ATPases destroy any remaining ATP; thus the levels of ATP fall precipitously.
Cells were plated at 3000-5000 cells/well (depending on the cell lines) in 90 μL growth medium on MTPs (Corning; #3603, black plate, clear flat bottom). For each cell line assayed, cells were plated onto a separate plate for determination of […] at t=0 hour and t=72 hour time points. Following overnight incubation at 37° C., chemiluminescence values for the t=0 samples were determined after adding 10 μl medium and 100 μl CTG solution according to manufacture protocol. Plates for the t=72 hour time points were treated with compounds diluted into growth medium at ten times final concentration added in 10 μL to the cell culture plate. Cells were then incubated for 72 hours at 37° C. Chemiluminescence values for the t=72 hour samples were determined. […] Experiments were controlled using a reference compound as standard.

Experiment [3] relates to p-AKT S473 in PC3 human prostate tumours. The experiment in a line: In vivo xenograft mechanism of action study. On the set-up: species or system athymic nude mice. The settings on record: Mus musculus, po, PC3 tumours in nude mice, once 50 mg/kg p.o. The source says: In Vivo Xenograft Mechanism of Action Study
To this extent PC3 human prostate tumours were xenografted onto athymic nude mice. PC3 tumour cells were cultivated according to ATCC protocols in recommended media contained 10% FCS and harvested for transplantation in a subconfluent (70%) state. 3×10^6 tumour cells suspended in 50% Matrigel were subcutaneously implantated into the inguinal region of male mice. Tumours were allowed to grow to the predetermined size of 60-80 mm^2. When the tumours were approximately in size, the animals were randomized to treatment and control groups (groups size: 9 animals) and treatment was started. Animals were treated once with 50 mg/kg compound or vehicle per oral administration (p.o.) carried out via a gastric tube. Treatment of each animal was based on individual body weight. At 2, 5 and 24 hours post treatment 3 animals each were sacrificed and the PC3 tumours excised. Tumour samples of approximately 5×5×5 mm were lysed on ice in MSD lysis buffer in the presence of protease and phosphatase inhibitors using Tissue Lyzer (Qiagen, Germany). The levels of p-AKT S473 in extracts from tumour tissue were analysed in an ELISA based assay. This assay is based on the “Akt Duplex” of the MULTI-SPOT® Assay System (Fa. Meso Scale Discovery, Cat# N41100B-1) following manufacturers instructions. Each assay used 20 μg of protein extract and measured total AKT and p-AKT content simultaneously in one well. All measurements where at least done in duplicates and confirmed by independent repetition.
Values for P-AKT are expressed as percentage of P-AKT level compared to total-AKT content of the extracts. Vehicle treated tumours were analyzed to determine the basal level of P-AKT in this model and used as a normalization control to determine the % P-AKT relative to vehicle levels.

In experiment [4] the test system is p-AKT1/2/3-S473 in KPL4 breast tumour cell line. Kind of experiment: Cellular p-AKT1/2/3-S473 assay. The format is cell-based. The settings on record: KPL4 breast tumour cell line, 2 hours treatment; read-out: pAKT-S743 median IC50. The method, boiled down: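 KPL4 cells (PIK3CA H1047R, HER2 0/E, hormone independent) were seeded at 60–80% confluency, cultured overnight, then exposed to compound for 2 h at 37 °C. pAKT-S473 and total AKT measured together by MSD Akt Duplex on 20 µg extract; pAKT expressed as % of total AKT, at least duplicate with independent repeats.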

The test system of experiment [5] is KPL-4 breast cancer cell line. The experiment in a line: Tumor cell proliferation assay (CellTiter-Glo, 72 h), KPL-4. It is filed as cell-based. The settings on record: KPL4, 72h drug exposure. The method, boiled down: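 KPL-4 cells were treated with compound for 72 h at 37°C. Viability was measured as ATP by CellTiter-Glo luminescence, with a separate t=0 plate read after overnight attachment. A reference compound was run as standard.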

In experiment [6] the target is His-tagged human recombinant kinase full-length Akt1 (Homo sapiens (Human), UniProt P31749). The experiment in a line: Akt1 kinase assay (TR-FRET). It is filed as biochemical. The settings on record: 10 μM ATP; read-out: Akt1, median IC50. The essentials: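 Full-length His-tagged Akt1 (about 0.05 ng/μl final) preincubated 15 min at 22 °C with compound in 50 mM TRIS/HCl pH 7.5, 5 mM MgCl2, 1 mM DTT, 0.02% Triton X-100; biotinylated peptide substrate. Phosphopeptide detected by TR-FRET (Eu-chelate antibody to streptavidin-XL665) after 1 h at 22 °C.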
Sequence of His-tagged human recombinant kinase full-length Akt1 (P31749 whole entry): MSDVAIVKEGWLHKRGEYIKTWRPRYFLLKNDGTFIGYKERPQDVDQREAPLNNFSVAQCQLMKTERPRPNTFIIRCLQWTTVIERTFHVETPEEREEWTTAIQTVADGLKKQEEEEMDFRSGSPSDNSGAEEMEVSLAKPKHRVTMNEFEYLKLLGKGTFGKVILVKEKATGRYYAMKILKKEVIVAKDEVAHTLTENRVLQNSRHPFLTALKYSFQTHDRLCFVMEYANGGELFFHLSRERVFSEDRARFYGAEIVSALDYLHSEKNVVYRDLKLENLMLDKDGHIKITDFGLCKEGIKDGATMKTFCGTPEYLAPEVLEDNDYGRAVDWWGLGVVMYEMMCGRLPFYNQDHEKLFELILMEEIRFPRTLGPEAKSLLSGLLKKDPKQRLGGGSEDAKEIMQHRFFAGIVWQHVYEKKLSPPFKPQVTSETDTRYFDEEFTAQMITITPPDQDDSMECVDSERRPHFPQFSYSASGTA

[7] abbreviates: 2 hours post treatment, read-out: P-AKT % relative to control at 2 hours.
The mark [8] stands for this setting: 5 hours post treatment, read-out: P-AKT % relative to control at 5 hours.

Where two headings read alike, the source gives them in different places.

On to `Cc1cc(-c2cccnc2)c2nc(-c3ccc(C4(N)CCC4)cc3)c(-c3ccccc3)n2c1` [Example 2-90], for which the IC50 in experiment [1] is 1560 nM; in experiment [2], 1700 nM; in experiment [4], 337 nM; in experiment [5], 1900 nM. Moreover, the values for the response vs control in vivo at 50 mg/kg in experiment [3] (setting [7]) and in experiment [3] (setting [8]) were 51.6% and 53.7%, respectively.

`COc1ccn2c(-c3ccccc3)c(-c3ccc(C4(N)CCC4)cc3)nc2n1` [Example 2-00, 1-[4-(7-methoxy-3-phenyl-imidazo[1,2-a]pyrimidin-2-yl)-phenyl]-cyclobutylamine]: the response vs control in vivo at 50 mg/kg is 4.7% in experiment [3] (setting [7]) and 6.3% in experiment [3] (setting [8]).

For `Cc1cc(-c2cn[nH]c2)c2nc(-c3ccc(C4(N)CCC4)cc3)c(-c3ccccc3)n2c1` [Example 2-93], the IC50 in experiment [1] was found to be 1420 nM; in experiment [2], 1800 nM; in experiment [4] it was 528 nM; in experiment [5], 2000 nM. The response vs control in vivo at 50 mg/kg in experiment [3] (setting [7]) worked out at 46%; in experiment [3] (setting [8]) it was 79.2%.

Turning to `NC1(c2ccc(-c3nc4c(F)cc(F)cn4c3-c3ccccc3)cc2)CCC1` [Example 2-75], the 50% inhibitory concentration (IC50) in experiment [1] came to 1600 nM; in experiment [2], 600 nM; in experiment [4] it was 79 nM; in experiment [5], 1100 nM; in experiment [6], 52 nM. The results for the response vs control in vivo at 50 mg/kg in experiment [3] (setting [7]) and in experiment [3] (setting [8]) were 5.5% and 6.2%, respectively.

Turning to `Cc1cc(C)c2nc(-c3ccc(C4(N)CCC4)cc3)c(-c3ccccc3)n2c1` [Example 2-73], the IC50 came out at 3980 nM in experiment [1], 1700 nM in experiment [2], 235 nM in experiment [4] and 1800 nM in experiment [5]. The response vs control in vivo at 50 mg/kg in experiment [3] (setting [7]) stood at 9.1%; in experiment [3] (setting [8]) it was 9.3%.

For `NC1(c2ccc(-c3nc4cc(-c5ncc[nH]5)ccn4c3-c3ccccc3)cc2)CCC1` [Example 2-114], the concentration for half-maximal inhibition (IC50) in experiment [2] was found to be 700 nM; in experiment [4] it was 25 nM; in experiment [5] it was 800 nM; in experiment [6], 71 nM. The figures for the response vs control in vivo at 50 mg/kg in experiment [3] (setting [7]) and in experiment [3] (setting [8]) were 47% and 57.2%, respectively.

In the case of `NC(=O)c1ccc2nc(-c3ccc(C4(N)CCC4)cc3)c(-c3ccccc3)n2c1` [Example 2-18], the response vs control in vivo at 50 mg/kg was found to be 8% in experiment [3] (setting [7]) and 7.7% in experiment [3] (setting [8]). Further, the half-maximal inhibitory concentration (IC50) in experiment [4] amounted to 33 nM; in experiment [5] it was 500 nM.

Take `COc1cc(Br)cn2c(-c3ccccc3)c(-c3ccc(C4(N)CCC4)cc3)nc12` [Example 2-52]: the concentration for half-maximal inhibition (IC50) was determined as 1100 nM in experiment [2], 49 nM in experiment [4], 1500 nM in experiment [5] and 19 nM in experiment [6]. For the same compound, the response vs control in vivo at 50 mg/kg in experiment [3] (setting [7]) is 34.9%; in experiment [3] (setting [8]), 47.9%.

Take `NC(=O)c1cccn2c(-c3ccccc3)c(-c3ccc(C4(N)CCC4)cc3)nc12` [Example 6-0, 2-[4-(1-amino-cyclobutyl)-phenyl]-3-phenyl-imidazo[1,2-a]pyridine-8-carboxylic acid amide]: the half-inhibitory concentration (IC50) in experiment [1] was 620 nM; in experiment [2], 400 nM; in experiment [4], 16 nM; in experiment [5], 800 nM; in experiment [6] it was 58 nM. Also, the response vs control in vivo at 50 mg/kg in experiment [3] (setting [7]) was determined as 5.8%; in experiment [3] (setting [8]), 6%.

For the compound `COc1cc(OC)c2nc(-c3ccc(C4(N)CCC4)cc3)c(-c3ccccc3)n2c1` [Example 2-146], the concentration for half-maximal inhibition (IC50) in experiment [1] was 636 nM; in experiment [2], 600 nM; in experiment [4] it was 43 nM; in experiment [5], 700 nM. For the same compound, the results for the response vs control in vivo at 50 mg/kg in experiment [3] (setting [7]) and in experiment [3] (setting [8]) were 17.5% and 22.3%, respectively.

`NC1(c2ccc(-c3nc4ncc(-c5ccccc5)cn4c3-c3ccccc3)cc2)CCC1` [Example 1-9]: the results for the response vs control in vivo at 50 mg/kg in experiment [3] (setting [7]) and in experiment [3] (setting [8]) were 32.2% and 21.1%, respectively. For the same compound, the IC50 stood at 770 nM in experiment [4] and 2000 nM in experiment [5].

Take `NC1(c2ccc(-c3nc4ccc(Cl)cn4c3-c3ccccc3)cc2)CCC1` [Example 2-140]: the half-maximal inhibitory concentration (IC50) came to 2660 nM in experiment [1], 500 nM in experiment [2], 115 nM in experiment [4] and 1900 nM in experiment [5]. Moreover, the response vs control in vivo at 50 mg/kg amounted to 26% in experiment [3] (setting [7]) and 18% in experiment [3] (setting [8]).

With `Cc1cc(C(N)=O)c2nc(-c3ccc(C4(N)CCC4)cc3)c(-c3ccccc3)n2c1` [Example 2-96], the IC50 was 1840 nM in experiment [1]; 10000 nM in experiment [2]; 1610 nM in experiment [4]; 10000 nM in experiment [5]; 893 nM in experiment [6]. In addition, the response vs control in vivo at 50 mg/kg in experiment [3] (setting [7]) was 12.2%; in experiment [3] (setting [8]), 11.4%.

In the case of `Cc1c(Cl)cn2c(-c3ccccc3)c(-c3ccc(C4(N)CCC4)cc3)nc2c1Br` [Example 2-81], the concentration for half-maximal inhibition (IC50) in experiment [1] stood at 3480 nM; in experiment [2] it was 1700 nM; in experiment [4], 1100 nM; in experiment [5], 1800 nM. The response vs control in vivo at 50 mg/kg in experiment [3] (setting [7]) was determined as 33.6%; in experiment [3] (setting [8]) it was 69.6%.

For the compound `NC(=O)c1ccn2c(-c3ccccc3)c(-c3ccc(C4(N)CCC4)cc3)nc2c1` [Example 2-41], the figures for the response vs control in vivo at 50 mg/kg in experiment [3] (setting [7]) and in experiment [3] (setting [8]) were 10.2% and 8.8%, respectively. Moreover, the IC50 in experiment [4] came to 33 nM; in experiment [5], 600 nM.

As to `NC(=O)c1cc(-c2cn[nH]c2)cn2c(-c3ccccc3)c(-c3ccc(C4(N)CCC4)cc3)nc12` [Example 2-97], the concentration for half-maximal inhibition (IC50) stood at 1590 nM in experiment [1]; 1800 nM in experiment [2]; 377 nM in experiment [4]; 1900 nM in experiment [5]; 67 nM in experiment [6].

Consider `Cc1cc(-c2cccnc2)cn2c(-c3ccccc3)c(-c3ccc(C4(N)CCC4)cc3)nc12` [Example 2-104], for which the IC50 was 348 nM in experiment [1]; 200 nM in experiment [2]; 112 nM in experiment [4]; 300 nM in experiment [5]; 175 nM in experiment [6].
